Data published in patent publication US20220125897A1, “Antithrombin-III Treatment of Traumatic Brain Injury” (THE TRUSTEES OF THE UNIVERSITY OF PENNSYLVANIA, priority 2020, published 2022).

Tests used:
[1] = test system: CD1 mice, controlled cortical impact (CCI) severe TBI model; assay: Pial intravital microscopy: in vivo LEU/EC interactions; conditions: pial penumbral microcirculation, 48 hours after CCI, doses 0.5 and 24 hours after CCI, ±SEM
Procedure: (§1) Procedures received approval from the University of Pennsylvania Institutional Animal Care and Use Committee. CD1 adult male mice (25-30 g) (Charles River Laboratories; Wilmington, Mass.) were acclimated in standard housing with ad libitum water and chow for 5 days before experiments and immediately after recovery from brain injury. Mice underwent controlled cortical impact (CCI) or sham craniotomy (SHAM) and then received one of three agents: 1) subcutaneous enoxaparin (ENX, 1.5 mg/kg) (Winthrop, Sanofi-Aventis; Bridgewater, N.J.); intravenous (femoral vein) pharmaceutical grade antithrombin-III (AT-III, 250 IU/kg, donated by Grifols S.A. (Durham, N.C.); or 3) an equal volume of IV normal saline (0.9% NS, Baxter; Deerfield, Ill.). Doses were administered 0.5 and 24 hours after the CCI (FIG. 1).
(§2) Seventy-one (71) mice were randomly assigned to one of six groups: 1) sham craniotomy and vehicle (VH, 0.9% normal saline, Baxter Healthcare Corporation; Deerfield, Ill.), (SHAM +VEH, n=9); 2) sham craniotomy and ENX (SHAM+ENX, n=8); 3) sham craniotomy and AT-III (SHAM+AT-III, n=9); 4) TBI and vehicle (CCI+VEH, n=19); TBI and ENX (CCI+ENX, n=13); and 6) TBI and AT-III (CCI+AT-III, n=13).
(§3) CCI was used to replicate TBI through a well-validated rodent model (16, 17). Briefly, on day 1, mice were anesthetized with intraperitoneal ketamine (Hospira; Lake Forest, Ill.), xylazine (Alcorn; Decatur, Ill.), and acepromazine (Boehringer Ingelheim; St. Joseph, Mo.) (KXA: 100, 10, 1 mg/kg, respectively) and place prone in a stereotactic device. After scalp exposure, a left-sided 4-mm craniotomy was created between bregma and lambda structures using a dental drill (Henry Schein; Melville, N.Y.) without violating the dura.
In vivo assessment of cerebral microcirculation using pial intravital microscopy was performed 48 hours after CCI as described previously, as this is the optimal time to observe peak leukocyte mobilization to the BBB penumbra after brain injury. Under KXA anesthesia, the right jugular vein was cannulated and a second 2.5 mm craniotomy was created immediately anterior to the first and covered with a 5 mm coverslip (Fisher Scientific; Waltham, Mass.). […]
Video data captured at 590 nm λ were imported into analysis software (NIS-Elements, Nikon Instruments; Melville, N.Y.) and LEU/EC interactions were counted by a blinded observer quantifying the following parameters: 1) LEU transit: mean number of labelled EU crossing a 100 μm long venular segment in 60 seconds; and 2) LEU adhesion: number of LEU stationary for at least 30 seconds during the recording period. Fluorescently labelled spherical cells measuring 7 to 12 μm were counted as LEU and interactions were reported as the number of cells/100 μm per minute (FIGS. 2A and 2B).

[2] = test system: CD1 mice, controlled cortical impact (CCI) severe TBI model; assay: Pial intravital microscopy: FITC-albumin leakage (microvascular permeability); type: in vivo; conditions: for Cerebrovascular FITC-albumin leakage: 48 hours after CCI, doses 0.5 and 24 hours after CCI, ±SEM
Procedure: as §1, §2
as §3, with “dura. […]” for “dura.”
Footage captured under the 488 nm filter was evaluated for fluorescence intensity from FITC-labelled albumin measured in three distinct regions within the vessel (venular intensity) and outside the vessel walls (perivenular intensity) (FIGS. 3A and 3B). […]

[3] = test system: CD1 mice, controlled cortical impact (CCI) or sham craniotomy; assay: Brain water content (brain edema, wet-to-dry ratio); type: in vivo; conditions: for Contralateral (%) Mean brain water content / Contralateral (%) Median brain water content / Ipsilateral (%) Mean brain water content / Ipsilateral (%) Median brain water content / Ratio (ipsi/contra) brain water content: 48 hours after CCI; for cerebral edema as compared to CCI+VEH: 48 hours, p>0.05
Procedure: as §1, §2, §3
Forty-eight hours after CCI, mice were sacrificed and excised brains were separated into injured (ipsilateral) and uninjured (contralateral) hemispheres. Wet weight (WW) was immediately assessed. Dry weight (DW) was assessed after 72 hours of dehydration at 70° C. Tissue water content was calculated using wet-to-dry ratios: % water content=100×(WW−DW)/WW.

[4] = Body weight loss after CCI; type: in vivo; conditions: CCI mice, 48 hours after TBI; (W0h-W48h)/W0h×100%; ±SEM
Procedure: as §1, with “1). […]” for “1).”
(§4) Animal body weights (BW) were obtained just before (W0h) as well as 24 and 48 hours after CCI with animal weight loss expressed as a ratio: (W0h-W24h or W48h)/W0h×100%. Murine neurologic function was assessed by the modified Stroke Garcia Neurologic Test (GNT) assessing motor, sensory, reflex, and balance ability at 24 hours and 48 hours after TBI. […]

[5] = test system: CD1 mice, controlled cortical impact (CCI) severe TBI model; assay: Garcia Neurological Test (GNT); type: in vivo; conditions: injured (CCI) mice, 24 or 48 hour post-TBI; maximum 18 points; ±SEM
Procedure: as §1, with “1). […]” for “1).”
as §4

[6] = test system: CD1 mice, controlled cortical impact (CCI) severe TBI model; assay: Morris water maze cued learning trials; type: in vivo
Procedure: (§5) Experimental procedures were conducted with the approval of the University of Pennsylvania Institutional Animal Care and Use Committee. CD1 adult male mice (25-30 g) (Charles River Laboratories, Wilmington, Mass.) were acclimatized in standard housing with water and chow ad libitum for 7 days before experiments after which they underwent sham craniotomy or craniotomy accompanied by controlled cortical impact (CCI), a well-validated severe TBI rodent model (Pascual et al., Am J Surg. 2013;206(6):840-846; Smith et al., J Neurotrauma. 1995; 12(2):169-178). Mice were anesthetized with intraperitoneal ketamine (Hospira, Lake Forest, Ill.), xylazine (Akorn, Decatur, Ill.), and acepromazine (Boehringer Ingelheim, St. Joseph, Mo.) (100, 10, 1 mg/kg, respectively) followed by subcutaneous bupivacaine (0.5 mg/mL) for longer-term analgesia. After creation of a left-sided, 4-mm craniotomy between bregma and lambda sutures, the exposed left parietotemporal cortex was injured via a controlled cortical impactor (AMS201; AmScien Instruments, Richmond, Va.). Controlled cortical impact settings (3-mm-diameter impactor tip, impact velocity of 6 m/s, and cortical deformation depth of 1 mm) replicated severe TBI (Smith et al., J Neurotrauma. 1995; 12(2):169-178). Rodents were then randomly allocated to receive either: (1) intravenous (via femoral vein) pharmaceutical grade AT-III (250 IU/kg, donated by Grifols S. A., Durham, N.C.) or (2) an equal volume of normal saline IV (0.9% NS; Baxter; Deerfield, Ill.) as a vehicle (VEH). Doses were administered 0.5 and 24 hours after CCI (FIG. 1) as determined by previous published reports and the manufacturer's recommendations (ElSaadani et al., J Trauma Acute Care Surg. 2021; 90(2):274-280; Uchiba et al., Thromb Res. 1998; 89(5):233-241; Uchiba et al., Semin Thromb Hemost. 1997; 23(6):583-590).
Fifteen mice (ElSaadani et al., J Trauma Acute Care Surg. 2021; 90(2):274-280) were randomized into three groups: (1) sham craniotomy (no CCI) plus VEH (SHAM, n=5), (2) TBI and VEH (CCI-VEH, n=5), and (3) TBI and AT-III (CCI−AT-III, n=5).
(§6) Learning and memory were evaluated in a Morris water maze (MWM) using a previously published protocol (Vorhees et al., Nat Protoc. 2006; 1(2):848-858; Jacovides et al., J Trauma Acute Care Surg. 2019; 87(3):552-558). After a recovery period of 6 days, each animal underwent daily. MWM trials of learning and memory for 9 consecutive days. […] All swimming trials were conducted and scored by the same operator, at the same time of day on all experiment days incorporating a computerized video-tracking and recording system over the pool to facilitate analysis (Ethovision; Noldus, Leesburg, Va.). […]

[7] = test system: CD1 mice, controlled cortical impact (CCI) severe TBI model; assay: Morris water maze spatial learning trials; type: in vivo; conditions: ±SEM
Procedure: as §5, with “Controlled cortical impact settings (3-mm-diameter impactor tip, impact velocity of 6 m/s, and cortical deformation depth of 1 mm) replicated severe TBI (Smith et al., J Neurotrauma. 1995; 12(2):169-178). Rodents were then randomly allocated to receive either: (1) intravenous (via femoral vein) pharmaceutical grade AT-III (250 IU/kg, donated by Grifols S. A., Durham, N.C.) or (2) an equal volume of normal saline IV (0.9% NS; Baxter; Deerfield, Ill.) as a vehicle (VEH).” left out, “23(6):583-590). […]” for “23(6):583-590).”
as §6, with “87(3):552-558).” for “87(3):552-558). After a recovery period of 6 days, each animal underwent daily. MWM trials of learning and memory for 9 consecutive days.”
On postcraniotomy days 9 to 13, daily spatial learning trials evaluated the animals' ability to use environmental visual cues to locate and reach the platform. […]

[8] = test system: CD1 mice, controlled cortical impact (CCI) severe TBI model; assay: Morris water maze probe trials (long-term memory); type: in vivo; conditions: days 10 to 14 post-TBI, CCI mice vs CCI-VEH
Procedure: Experimental procedures were conducted with the approval of the University of Pennsylvania Institutional Animal Care and Use Committee. CD1 adult male mice (25-30 g) (Charles River Laboratories, Wilmington, Mass.) were acclimatized in standard housing with water and chow ad libitum for 7 days before experiments after which they underwent sham craniotomy or craniotomy accompanied by controlled cortical impact (CCI), a well-validated severe TBI rodent model (Pascual et al., Am J Surg. 2013;206(6):840-846; Smith et al., J Neurotrauma. 1995; 12(2):169-178). […] Doses were administered 0.5 and 24 hours after CCI (FIG. 1) as determined by previous published reports and the manufacturer's recommendations (ElSaadani et al., J Trauma Acute Care Surg. 2021; 90(2):274-280; Uchiba et al., Thromb Res. 1998; 89(5):233-241; Uchiba et al., Semin Thromb Hemost. 1997; 23(6):583-590). […]
as §6, with “87(3):552-558).” for “87(3):552-558). After a recovery period of 6 days, each animal underwent daily. MWM trials of learning and memory for 9 consecutive days.”

Substance	LEU adhesion [1] [LEUs/100 um/min]	LEU transit [1] [LEUs/100 um/min]	Cerebrovascular FITC-albumin leakage [2] [%]	decrease of macromolecular leakage (blood brain barrier integrity) ([2]; pial vessels, vs untreated injured)	Contralateral (%) Mean brain water content [3] [%]	Contralateral (%) Median brain water content [3] [%]	Ipsilateral (%) Mean brain water content [3] [%]	Ipsilateral (%) Median brain water content [3] [%]	Ratio (ipsi/contra) brain water content [3]	cerebral edema as compared to CCI+VEH [3]	Body weight loss [4] [%]	GNT score (stroke functional recovery score) [5]	time to reach the exposed platform, course over days ([6]; cued learning trials, compared with SHAM)	swimming velocity ([6]; cued learning trials, days 6-8 post-TBI, ±SEM) [cm/s]	mean time to reach the platform ([6]; cued learning trials, ±SEM) [s]	cumulative cued learning (overall mean group time to reach the platform) ([6]; throughout days 6 to 8 post-TBI, ±SEM) [s]	mean group cumulative swimming time ([7]; all 5 days of spatial learning trials, CCI mice) [s]	swimming time (time to reach platform) ([7]; day 13, last day of spatial learning trials, CCI mice) [s]	overall swim distance ([7]; spatial learning trials, days 9 to 13, CCI mice) [cm]	cognitive recovery: memory [8]
antithrombin-III [AT-III]	3.2±0.5	24.8±2.1	41.9±2.8	more than 25%	75.12	77.7	77.64	78.6192	1.033	did not significantly reduce cerebral edema	8.4±1	13.1±0.3	eventually reached SHAM times by day 7	28.4 ± 1.1	20.1 ± 3.1	20.3 ± 2.1	17.6 ± 1.5	17.6 ± 3.9	306.9±27.9	not memory
enoxaparin [ENX, reference compound]	3.5±0.8	24.9±2.8	49.1±2.3	–	77.26	77.38	78.3674	79.03	1.014	did not significantly reduce cerebral edema	–	12.4±0.4	–	–	–	–	–	–	–	–
